Test [1] addresses T1, 5-hydroxytryptamine receptor 1A (Homo sapiens, UniProt P08908).
T1 sequence (P08908 whole entry): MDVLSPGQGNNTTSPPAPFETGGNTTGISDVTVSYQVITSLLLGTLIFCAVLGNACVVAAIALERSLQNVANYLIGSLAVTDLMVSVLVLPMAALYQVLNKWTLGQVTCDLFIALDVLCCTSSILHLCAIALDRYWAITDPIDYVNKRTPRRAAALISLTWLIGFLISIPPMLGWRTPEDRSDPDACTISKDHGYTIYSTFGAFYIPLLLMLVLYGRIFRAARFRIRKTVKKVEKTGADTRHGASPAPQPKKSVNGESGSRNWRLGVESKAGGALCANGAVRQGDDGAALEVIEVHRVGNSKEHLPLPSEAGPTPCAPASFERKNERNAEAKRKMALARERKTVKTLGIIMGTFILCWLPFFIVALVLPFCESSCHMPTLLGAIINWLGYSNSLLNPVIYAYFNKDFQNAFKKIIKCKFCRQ
It counts as functional, cell-based.

The target in test [2] is Sodium-dependent noradrenaline transporter (Homo sapiens, UniProt P23975).
For test [3], the target named is 5-hydroxytryptamine receptor 2B (Homo sapiens, UniProt P41595). The format is functional, cell-based.
In test [4] the target is 3',5'-cyclic-AMP phosphodiesterase 4D (Homo sapiens, UniProt Q08499). It counts as functional.
A further test addresses T2, Adenosine receptor A1 (Homo sapiens, UniProt P30542).
T2 sequence (P30542 whole entry): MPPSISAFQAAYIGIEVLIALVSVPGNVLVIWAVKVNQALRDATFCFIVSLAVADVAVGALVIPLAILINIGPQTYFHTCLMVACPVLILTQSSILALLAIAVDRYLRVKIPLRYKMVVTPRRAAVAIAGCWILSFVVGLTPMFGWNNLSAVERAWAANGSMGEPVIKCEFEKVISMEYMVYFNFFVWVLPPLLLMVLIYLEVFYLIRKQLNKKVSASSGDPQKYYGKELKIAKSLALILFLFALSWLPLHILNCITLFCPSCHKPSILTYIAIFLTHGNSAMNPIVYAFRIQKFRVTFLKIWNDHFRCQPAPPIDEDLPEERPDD

For test [5], the target named is T3, 5-hydroxytryptamine receptor 3A (Homo sapiens, UniProt P46098).
T3 sequence (P46098 whole entry): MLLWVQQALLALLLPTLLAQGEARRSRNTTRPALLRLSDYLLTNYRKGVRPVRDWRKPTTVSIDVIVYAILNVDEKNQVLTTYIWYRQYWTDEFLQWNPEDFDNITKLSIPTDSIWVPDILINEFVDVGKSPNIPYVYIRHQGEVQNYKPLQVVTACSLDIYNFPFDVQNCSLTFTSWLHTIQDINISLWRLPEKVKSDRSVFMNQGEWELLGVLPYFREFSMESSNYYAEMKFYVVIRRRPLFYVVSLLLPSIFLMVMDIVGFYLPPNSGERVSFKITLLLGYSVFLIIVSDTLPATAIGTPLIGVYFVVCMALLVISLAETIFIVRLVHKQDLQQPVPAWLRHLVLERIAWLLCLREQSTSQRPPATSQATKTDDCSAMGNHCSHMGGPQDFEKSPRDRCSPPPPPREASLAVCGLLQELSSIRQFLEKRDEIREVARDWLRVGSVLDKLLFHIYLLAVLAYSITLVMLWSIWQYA
It counts as functional.

Another test deals with Bile salt export pump (Homo sapiens, UniProt O95342). The format is functional.
The next test concerns the target D(1A) dopamine receptor (Homo sapiens, UniProt P21728). The format is functional, cell-based.
In the next test the target is Adenosine receptor A2a (Homo sapiens, UniProt P29274).
Test [6] deals with Delta-type opioid receptor (Homo sapiens, UniProt P41143).
The target of test [7] is T4, Alpha-2A adrenergic receptor (Homo sapiens, UniProt P08913).
T4 sequence (P08913 whole entry): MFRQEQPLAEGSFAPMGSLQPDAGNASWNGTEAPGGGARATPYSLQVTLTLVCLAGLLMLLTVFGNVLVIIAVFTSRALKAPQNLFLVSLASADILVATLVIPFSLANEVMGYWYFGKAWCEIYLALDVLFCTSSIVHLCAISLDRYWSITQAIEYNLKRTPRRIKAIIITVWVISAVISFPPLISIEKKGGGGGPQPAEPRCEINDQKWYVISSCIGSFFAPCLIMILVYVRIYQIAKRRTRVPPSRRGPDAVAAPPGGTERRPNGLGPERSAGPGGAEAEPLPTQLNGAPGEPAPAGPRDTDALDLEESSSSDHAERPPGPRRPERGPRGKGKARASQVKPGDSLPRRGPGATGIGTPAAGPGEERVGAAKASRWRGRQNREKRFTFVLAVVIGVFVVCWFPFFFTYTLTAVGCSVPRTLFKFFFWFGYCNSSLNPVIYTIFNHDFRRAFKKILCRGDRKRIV
It counts as functional, cell-based.

The target of test [8] is T5, Alpha-2C adrenergic receptor (Homo sapiens, UniProt P18825).
T5 sequence (P18825 whole entry): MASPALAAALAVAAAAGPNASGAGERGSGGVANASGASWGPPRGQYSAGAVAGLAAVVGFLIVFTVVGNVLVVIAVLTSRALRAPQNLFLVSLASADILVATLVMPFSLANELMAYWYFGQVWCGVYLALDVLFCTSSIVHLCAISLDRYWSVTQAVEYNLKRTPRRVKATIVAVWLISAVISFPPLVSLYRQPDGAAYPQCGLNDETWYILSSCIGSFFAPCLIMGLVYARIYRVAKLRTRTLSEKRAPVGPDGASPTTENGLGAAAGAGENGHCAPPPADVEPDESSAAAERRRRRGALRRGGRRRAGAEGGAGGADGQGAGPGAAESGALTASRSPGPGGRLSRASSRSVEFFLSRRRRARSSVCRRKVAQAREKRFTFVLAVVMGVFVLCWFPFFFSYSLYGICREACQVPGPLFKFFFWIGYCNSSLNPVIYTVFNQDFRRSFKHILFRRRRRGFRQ
The format is functional.

Another test concerns the target Melanocortin receptor 3 (Homo sapiens, UniProt P41968).
Note: assay procedure not described here.

Sequence of 3',5'-cyclic-AMP phosphodiesterase 4D (Q08499 whole entry): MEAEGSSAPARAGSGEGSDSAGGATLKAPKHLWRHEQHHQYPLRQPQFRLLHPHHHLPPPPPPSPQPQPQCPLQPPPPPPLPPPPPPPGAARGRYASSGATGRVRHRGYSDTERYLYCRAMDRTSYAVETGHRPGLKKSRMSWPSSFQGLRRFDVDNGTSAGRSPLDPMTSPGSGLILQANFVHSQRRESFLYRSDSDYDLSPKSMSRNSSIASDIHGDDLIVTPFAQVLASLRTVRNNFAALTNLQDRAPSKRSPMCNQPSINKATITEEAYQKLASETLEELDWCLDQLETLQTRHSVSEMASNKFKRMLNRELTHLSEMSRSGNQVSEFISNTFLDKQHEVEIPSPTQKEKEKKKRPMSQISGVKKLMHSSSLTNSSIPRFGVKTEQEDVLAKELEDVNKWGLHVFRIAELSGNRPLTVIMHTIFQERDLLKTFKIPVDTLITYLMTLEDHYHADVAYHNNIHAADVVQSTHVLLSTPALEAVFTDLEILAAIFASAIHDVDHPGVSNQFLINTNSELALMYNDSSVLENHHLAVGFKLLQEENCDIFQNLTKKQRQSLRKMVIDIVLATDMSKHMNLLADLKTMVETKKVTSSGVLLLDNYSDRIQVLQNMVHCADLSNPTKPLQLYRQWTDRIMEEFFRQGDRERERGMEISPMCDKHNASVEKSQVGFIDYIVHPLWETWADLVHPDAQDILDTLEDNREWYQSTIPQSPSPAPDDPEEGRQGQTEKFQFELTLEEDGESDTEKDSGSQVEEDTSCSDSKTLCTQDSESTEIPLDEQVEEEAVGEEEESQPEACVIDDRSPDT
Sequence of Adenosine receptor A2a (P29274 whole entry): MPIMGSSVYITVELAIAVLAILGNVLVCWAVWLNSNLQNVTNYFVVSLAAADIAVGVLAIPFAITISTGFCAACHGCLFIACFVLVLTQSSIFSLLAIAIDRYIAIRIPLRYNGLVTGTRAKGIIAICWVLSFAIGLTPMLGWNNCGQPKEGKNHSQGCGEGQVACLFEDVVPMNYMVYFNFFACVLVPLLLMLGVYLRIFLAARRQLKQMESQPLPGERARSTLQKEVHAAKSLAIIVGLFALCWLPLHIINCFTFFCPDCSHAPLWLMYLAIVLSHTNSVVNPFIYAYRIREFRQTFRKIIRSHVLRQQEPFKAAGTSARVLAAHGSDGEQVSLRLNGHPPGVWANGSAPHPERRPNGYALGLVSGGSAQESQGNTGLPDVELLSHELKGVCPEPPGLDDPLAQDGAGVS
Sequence of Delta-type opioid receptor (P41143 whole entry): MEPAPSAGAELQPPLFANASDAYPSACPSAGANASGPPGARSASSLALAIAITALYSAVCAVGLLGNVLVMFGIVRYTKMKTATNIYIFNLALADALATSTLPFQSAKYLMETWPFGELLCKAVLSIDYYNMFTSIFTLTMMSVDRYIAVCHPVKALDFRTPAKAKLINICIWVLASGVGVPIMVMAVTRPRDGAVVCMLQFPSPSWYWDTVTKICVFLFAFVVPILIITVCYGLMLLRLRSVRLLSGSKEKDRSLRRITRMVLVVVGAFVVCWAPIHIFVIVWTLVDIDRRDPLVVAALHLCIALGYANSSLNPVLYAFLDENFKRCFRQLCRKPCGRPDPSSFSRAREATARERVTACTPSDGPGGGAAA
Sequence of 5-hydroxytryptamine receptor 2B (P41595 whole entry): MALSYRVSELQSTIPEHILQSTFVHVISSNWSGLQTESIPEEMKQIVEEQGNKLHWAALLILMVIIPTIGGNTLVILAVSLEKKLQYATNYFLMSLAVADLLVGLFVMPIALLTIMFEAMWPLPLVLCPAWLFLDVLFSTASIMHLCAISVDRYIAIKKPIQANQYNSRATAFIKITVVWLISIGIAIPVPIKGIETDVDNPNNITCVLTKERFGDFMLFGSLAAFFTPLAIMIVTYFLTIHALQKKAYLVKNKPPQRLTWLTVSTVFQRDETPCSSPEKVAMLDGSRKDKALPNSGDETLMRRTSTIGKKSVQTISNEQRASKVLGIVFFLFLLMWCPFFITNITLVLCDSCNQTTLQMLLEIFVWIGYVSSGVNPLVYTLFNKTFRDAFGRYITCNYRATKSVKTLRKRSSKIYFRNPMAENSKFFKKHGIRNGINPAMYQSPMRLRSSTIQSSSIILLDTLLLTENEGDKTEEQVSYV
Sequence of Sodium-dependent noradrenaline transporter (P23975 whole entry): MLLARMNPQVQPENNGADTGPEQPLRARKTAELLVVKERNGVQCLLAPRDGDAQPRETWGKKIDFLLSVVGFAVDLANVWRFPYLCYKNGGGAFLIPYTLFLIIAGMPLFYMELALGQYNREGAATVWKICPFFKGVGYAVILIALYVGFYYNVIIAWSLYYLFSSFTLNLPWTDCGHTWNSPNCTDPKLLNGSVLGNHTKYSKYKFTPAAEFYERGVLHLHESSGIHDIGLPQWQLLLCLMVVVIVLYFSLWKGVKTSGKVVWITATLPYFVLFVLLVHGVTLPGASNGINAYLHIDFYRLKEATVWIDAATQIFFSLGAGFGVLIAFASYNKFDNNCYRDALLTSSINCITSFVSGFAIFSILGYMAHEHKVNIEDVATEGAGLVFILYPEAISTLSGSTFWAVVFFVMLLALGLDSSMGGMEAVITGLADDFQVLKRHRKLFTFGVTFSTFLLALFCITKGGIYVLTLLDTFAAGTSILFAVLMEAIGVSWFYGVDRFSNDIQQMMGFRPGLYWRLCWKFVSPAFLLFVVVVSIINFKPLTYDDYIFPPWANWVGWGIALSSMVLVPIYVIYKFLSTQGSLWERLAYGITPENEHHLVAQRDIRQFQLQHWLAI
Sequence of D(1A) dopamine receptor (P21728 whole entry): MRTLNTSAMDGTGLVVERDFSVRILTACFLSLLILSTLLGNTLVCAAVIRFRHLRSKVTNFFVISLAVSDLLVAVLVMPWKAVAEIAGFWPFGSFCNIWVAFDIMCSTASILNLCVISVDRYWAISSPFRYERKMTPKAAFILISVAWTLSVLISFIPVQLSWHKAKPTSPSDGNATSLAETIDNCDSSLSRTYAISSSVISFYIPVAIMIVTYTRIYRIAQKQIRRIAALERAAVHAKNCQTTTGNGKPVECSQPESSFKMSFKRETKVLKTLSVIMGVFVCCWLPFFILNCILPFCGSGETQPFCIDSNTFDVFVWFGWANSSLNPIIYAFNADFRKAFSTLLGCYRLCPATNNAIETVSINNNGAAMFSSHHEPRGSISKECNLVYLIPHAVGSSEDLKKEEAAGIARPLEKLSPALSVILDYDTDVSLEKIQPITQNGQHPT
Sequence of Bile salt export pump (O95342 whole entry): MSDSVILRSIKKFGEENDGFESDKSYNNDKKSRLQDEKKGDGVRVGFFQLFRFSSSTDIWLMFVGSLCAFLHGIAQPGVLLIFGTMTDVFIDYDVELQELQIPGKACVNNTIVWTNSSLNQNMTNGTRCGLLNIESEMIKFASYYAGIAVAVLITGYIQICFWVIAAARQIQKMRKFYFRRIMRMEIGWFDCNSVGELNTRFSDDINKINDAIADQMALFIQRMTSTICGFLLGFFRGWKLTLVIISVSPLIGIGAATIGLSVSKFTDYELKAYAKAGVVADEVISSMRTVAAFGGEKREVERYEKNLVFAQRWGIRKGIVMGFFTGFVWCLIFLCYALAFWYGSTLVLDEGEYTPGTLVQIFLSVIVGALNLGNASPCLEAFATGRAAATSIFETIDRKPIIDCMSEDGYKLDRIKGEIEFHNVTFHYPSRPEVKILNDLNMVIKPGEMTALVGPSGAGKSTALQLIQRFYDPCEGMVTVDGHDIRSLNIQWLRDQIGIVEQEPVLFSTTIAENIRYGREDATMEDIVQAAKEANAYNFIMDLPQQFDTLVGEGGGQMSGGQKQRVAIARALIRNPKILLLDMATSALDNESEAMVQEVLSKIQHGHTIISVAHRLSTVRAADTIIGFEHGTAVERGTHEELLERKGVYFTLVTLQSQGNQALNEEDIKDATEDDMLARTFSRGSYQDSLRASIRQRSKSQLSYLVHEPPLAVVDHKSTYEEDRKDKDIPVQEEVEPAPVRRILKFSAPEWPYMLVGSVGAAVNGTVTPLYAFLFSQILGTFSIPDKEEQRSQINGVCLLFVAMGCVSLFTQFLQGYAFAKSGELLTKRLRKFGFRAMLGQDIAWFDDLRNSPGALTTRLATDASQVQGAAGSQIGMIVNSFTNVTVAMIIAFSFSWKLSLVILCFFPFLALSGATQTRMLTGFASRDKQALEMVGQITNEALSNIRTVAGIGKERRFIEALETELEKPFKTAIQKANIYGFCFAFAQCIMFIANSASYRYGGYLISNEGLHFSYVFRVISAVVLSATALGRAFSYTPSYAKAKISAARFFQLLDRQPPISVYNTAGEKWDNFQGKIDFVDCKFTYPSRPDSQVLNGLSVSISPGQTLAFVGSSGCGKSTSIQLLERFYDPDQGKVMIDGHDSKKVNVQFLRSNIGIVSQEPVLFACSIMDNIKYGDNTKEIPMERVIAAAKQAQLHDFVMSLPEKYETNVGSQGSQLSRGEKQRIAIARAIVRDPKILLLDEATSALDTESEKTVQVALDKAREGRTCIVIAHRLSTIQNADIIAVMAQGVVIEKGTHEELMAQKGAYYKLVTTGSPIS
Sequence of Melanocortin receptor 3 (P41968 whole entry): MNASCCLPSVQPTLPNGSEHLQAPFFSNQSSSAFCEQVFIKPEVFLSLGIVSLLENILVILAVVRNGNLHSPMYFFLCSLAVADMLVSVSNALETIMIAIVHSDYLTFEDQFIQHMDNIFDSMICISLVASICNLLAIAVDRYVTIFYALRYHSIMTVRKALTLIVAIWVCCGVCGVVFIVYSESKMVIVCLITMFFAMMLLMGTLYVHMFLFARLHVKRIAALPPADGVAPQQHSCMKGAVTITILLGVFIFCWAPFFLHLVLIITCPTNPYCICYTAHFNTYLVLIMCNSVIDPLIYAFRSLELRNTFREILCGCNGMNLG

Consider `CN1CC2c3ccccc3Oc3ccc(Cl)cc3C2C1` (stereo not given) [ASENAPINE], for which the AC50 is over 10 µM in [1]; 17 µM in test [2]; 0.0013 µM in [3]; over 30 µM in test [4]; over 30 µM at Adenosine receptor A1; 18 µM in [5]. The concentration at half-maximal activity (AC50) on Bile salt export pump is 270 µM; at D(1A) dopamine receptor, over 30 µM; on Adenosine receptor A2a, over 30 µM; in test [6], over 30 µM; in [7] it was over 30 µM; in [8] it was 0.3 µM. On Melanocortin receptor 3, this compound returned an AC50 of over 30 µM.

`CC(=O)Oc1ccccc1C(=O)O` [ASPIRIN]: the AC50 in test [1] was over 10 µM; in [2], over 30 µM; in test [3], over 10 µM; in test [4], over 30 µM; at Adenosine receptor A1 it was over 30 µM; in test [5] it was over 30 µM. In addition, the AC50 on Bile salt export pump is over 300 µM; on D(1A) dopamine receptor it was over 10 µM; at Adenosine receptor A2a, over 30 µM; in [6], over 30 µM; in test [7], over 10 µM; in [8], over 10 µM. For the same compound, at Melanocortin receptor 3, the AC50 was over 30 µM.

On to `Cn1cnc2c(F)c(Nc3ccc(Br)cc3F)c(C(=O)NOCCO)cc21` [BINIMETINIB], for which the AC50 (in test [1]; in test [2]; in [3]; in [4]; on Adenosine receptor A1; in [5]) was over 30 µM throughout. The AC50 at Bile salt export pump is 87 µM; on D(1A) dopamine receptor, over 30 µM; at Adenosine receptor A2a, over 30 µM; in test [6], over 30 µM; in [7] it was over 30 µM; in test [8], over 30 µM. This compound returned an AC50 on Melanocortin receptor 3 of over 30 µM.

As to `CC(C)C[C@H](NC(=O)[C@H](Cc1ccccc1)NC(=O)c1cnccn1)B(O)O` [BORTEZOMIB], the AC50 (in [1]; in test [2]; in test [3]; in test [4]; at Adenosine receptor A1; in test [5]) was over 30 µM in each case. Besides, the AC50 on Bile salt export pump is over 300 µM; on D(1A) dopamine receptor it was over 30 µM; on Adenosine receptor A2a, over 30 µM; in test [6], over 30 µM; in [7] it was over 30 µM; in test [8], over 30 µM. In addition, the AC50 at Melanocortin receptor 3 was over 30 µM.

As to `C[C@H](CS)C(=O)N1CCC[C@H]1C(=O)O` [CAPTOPRIL], the concentration at half-maximal activity (AC50) in test [1] was over 30 µM; in test [2], over 30 µM; in test [3], over 10 µM; in test [4], over 30 µM; at Adenosine receptor A1, over 30 µM; in test [5], over 30 µM. Also, the AC50 at Bile salt export pump was over 300 µM; on D(1A) dopamine receptor it was over 30 µM; on Adenosine receptor A2a it was over 30 µM; in [6], over 30 µM; in test [7], over 10 µM; in test [8], over 10 µM. This compound also yielded an AC50 on Melanocortin receptor 3 of over 30 µM.

Take `CN(C)CCOC(c1ccc(Cl)cc1)c1ccccn1` (stereo not given) [CARBINOXAMINE]: the AC50 is over 30 µM in test [1]; 24 µM in test [2]; over 30 µM in [3]; over 30 µM in test [4]; over 30 µM on Adenosine receptor A1; over 30 µM in test [5]. In addition, the AC50 at Bile salt export pump was over 300 µM; on D(1A) dopamine receptor, over 30 µM; at Adenosine receptor A2a, over 30 µM; in [6], over 30 µM; in test [7], over 30 µM; in [8], over 30 µM. For the same compound, the AC50 on Melanocortin receptor 3 is over 30 µM.

Turning to `CCN(CC)CCn1c(=O)c(Cc2ccc(OC)cc2)nc2ccccc21` [CAROVERINE], the AC50 was over 30 µM in [1]; over 30 µM in test [2]; over 30 µM in test [3]; 7.11 µM in [4]; over 30 µM at Adenosine receptor A1; 29 µM in [5]. Moreover, the AC50 was over 300 µM on Bile salt export pump; over 30 µM at D(1A) dopamine receptor; over 30 µM at Adenosine receptor A2a; 26 µM in test [6]; over 30 µM in test [7]; 21.5 µM in test [8]. This compound also gave an AC50 on Melanocortin receptor 3 of over 30 µM.

Regarding `C[C@H](CCC(=O)O)[C@H]1CC[C@H]2[C@@H]3[C@H](O)C[C@@H]4C[C@H](O)CC[C@]4(C)[C@H]3CC[C@]12C` [CHENODIOL], the AC50 (in test [1]; in test [2]; in [3]; in test [4]; at Adenosine receptor A1; in test [5]) was over 30 µM throughout. Further, the AC50 on Bile salt export pump was 13 µM; at D(1A) dopamine receptor it was over 30 µM; at Adenosine receptor A2a it was over 30 µM; in test [6], over 30 µM; in test [7], over 30 µM; in test [8], over 30 µM. The AC50 on Melanocortin receptor 3 is over 30 µM.

Regarding `O=C(O)[C@H]1/C(=C/CO)O[C@@H]2CC(=O)N21` [CLAVULANIC ACID], the AC50 (in test [1]; in [2]; in test [3]; in [4]; on Adenosine receptor A1; in test [5]) was over 30 µM throughout. Moreover, the AC50 is over 300 µM on Bile salt export pump; over 30 µM at D(1A) dopamine receptor; over 30 µM on Adenosine receptor A2a; over 30 µM in test [6]; over 30 µM in test [7]; over 30 µM in test [8]. At Melanocortin receptor 3, this compound came in with an AC50 of over 30 µM.

Take `CC(C)/N=c1\cc2n(-c3ccc(Cl)cc3)c3ccccc3nc-2cc1Nc1ccc(Cl)cc1` [CLOFAZIMINE]: the AC50 in test [1] was over 30 µM; in test [2], over 30 µM; in test [3], over 30 µM; in test [4], 17.5 µM; at Adenosine receptor A1, over 30 µM; in test [5] it was over 30 µM. The AC50 was 12 µM on Bile salt export pump; over 30 µM on D(1A) dopamine receptor; over 30 µM on Adenosine receptor A2a; 26 µM in test [6]; over 30 µM in [7]; 13 µM in test [8]. This compound also displayed an AC50 at Melanocortin receptor 3 of over 30 µM.

(Values after ChEMBL document CHEMBL5291721, “A preclinical secondary pharmacology resource illuminates target-adverse drug reaction associations of marketed drugs” (Nat Commun, 2023).)
